This is an account of results in ChEMBL document CHEMBL3045406, “Enantioselective Relieving Activity of α-Methylbenzylphenylureas toward Bensulfuron-methyl Injury to Rice (Oryza sativa)” (Biosci Biotechnol Biochem, 1999).

In the first data set the test system is Oryza sativa. Kind of data set: Effect on Oryza sativa (rice) assessed as growth rate at 10 uM relative to control. The note with it: in vivo. Type of data set: organism-based.
Turning to `C[C@@H](NC(=O)Nc1c(F)cccc1F)c1ccccc1`, the Activity was determined as 98%.

Regarding `C[C@H](NC(=O)Nc1cc(Cl)cc(Cl)c1)c1ccccc1`, the Activity worked out at 99%.

As to `C[C@H](NC(=O)Nc1ccccc1F)c1ccccc1`, the Activity came out at 65%.

Regarding `Cc1ccc(NC(=O)N[C@H](C)c2ccccc2)cc1`, the Activity is listed as 64%.

For the compound `CCc1cccc(CC)c1NC(=O)N[C@H](C)c1ccccc1`, the Activity was found to be 99%.

With `COc1cccc(NC(=O)N[C@H](C)c2ccccc2)c1`, the Activity amounted to 70%.

`CCc1ccccc1NC(=O)N[C@@H](C)c1ccccc1`: the Activity was 95%.

On to `C[C@@H](NC(=O)Nc1ccc(Cl)c(Cl)c1)c1ccccc1`, for which the Activity is reported as 93%.

`CC(=O)c1ccccc1NC(=O)N[C@H](C)c1ccccc1`: the Activity came out at 89%.

Turning to `C[C@H](NC(=O)Nc1ccc(C(C)(C)C)cc1)c1ccccc1`, the Activity is 64%.

The test system of the next data set is Oryza sativa. Description: Safener indices, ratio of compound effect of Oryza sativa (rice) growth rate to relieving activity against bensulfuron-methyl induced injury to Oryza sativa growth rate at 10 uM.
Conditions: not given
With `C[C@@H](NC(=O)Nc1c(F)cccc1F)c1ccccc1`, the Ratio was determined as 42.

Consider `C[C@H](NC(=O)Nc1cc(Cl)cc(Cl)c1)c1ccccc1`, for which the Ratio stood at 76.

Regarding `C[C@H](NC(=O)Nc1ccccc1F)c1ccccc1`, the Ratio came to 68.

`Cc1ccc(NC(=O)N[C@H](C)c2ccccc2)cc1`: the Ratio is on record as 46.

For `CCc1cccc(CC)c1NC(=O)N[C@H](C)c1ccccc1`, the Ratio is given as 53.

For the compound `COc1cccc(NC(=O)N[C@H](C)c2ccccc2)c1`, the Ratio is on record as 57.

Regarding `CCc1ccccc1NC(=O)N[C@@H](C)c1ccccc1`, the Ratio is given as 44.

Consider `C[C@@H](NC(=O)Nc1ccc(Cl)c(Cl)c1)c1ccccc1`, for which the Ratio amounted to 56.

As for `CC(=O)c1ccccc1NC(=O)N[C@H](C)c1ccccc1`, the Ratio is reported as 49.

On to `C[C@H](NC(=O)Nc1ccc(C(C)(C)C)cc1)c1ccccc1`, for which the Ratio stood at 53.

For a further data set, the system named is Oryza sativa. Kind of data set: Safener indices, ratio of compound effect of Oryza sativa (rice) growth rate to relieving activity against bensulfuron-methyl induced injury to Oryza sativa growth rate at 0.1 uM.
Conditions: not given
Turning to `C[C@@H](NC(=O)Nc1c(F)cccc1F)c1ccccc1`, the Ratio worked out at 2.

`C[C@H](NC(=O)Nc1cc(Cl)cc(Cl)c1)c1ccccc1`: the Ratio amounted to 46.

For the compound `C[C@H](NC(=O)Nc1ccccc1F)c1ccccc1`, the Ratio is reported as 47.

`Cc1ccc(NC(=O)N[C@H](C)c2ccccc2)cc1`: the Ratio came out at 9.

Consider `CCc1cccc(CC)c1NC(=O)N[C@H](C)c1ccccc1`, for which the Ratio is on record as 6.

As to `COc1cccc(NC(=O)N[C@H](C)c2ccccc2)c1`, the Ratio is given as -5.

Consider `CCc1ccccc1NC(=O)N[C@@H](C)c1ccccc1`, for which the Ratio was found to be 1.

Take `C[C@@H](NC(=O)Nc1ccc(Cl)c(Cl)c1)c1ccccc1`: the Ratio is on record as 15.

Take `CC(=O)c1ccccc1NC(=O)N[C@H](C)c1ccccc1`: the Ratio is recorded as 1.

Take `C[C@H](NC(=O)Nc1ccc(C(C)(C)C)cc1)c1ccccc1`: the Ratio is reported as 4.

The next data set relates to Oryza sativa. Description: Relieving activity against bensulfuron-methyl induced injury to Oryza sativa (rice) assessed as growth rate at 0.1 uM (Rbv = 46 to 53%).
Conditions: not given
Type of data set: functional.
Regarding `C[C@@H](NC(=O)Nc1c(F)cccc1F)c1ccccc1`, the Activity amounted to 51%.

For the compound `C[C@H](NC(=O)Nc1cc(Cl)cc(Cl)c1)c1ccccc1`, the Activity is 74%.

With `C[C@H](NC(=O)Nc1ccccc1F)c1ccccc1`, the Activity is listed as 73%.

As to `Cc1ccc(NC(=O)N[C@H](C)c2ccccc2)cc1`, the Activity came out at 54%.

As to `CCc1cccc(CC)c1NC(=O)N[C@H](C)c1ccccc1`, the Activity was 54%.

Consider `COc1cccc(NC(=O)N[C@H](C)c2ccccc2)c1`, for which the Activity is on record as 54%.

Regarding `CCc1ccccc1NC(=O)N[C@@H](C)c1ccccc1`, the Activity stood at 51%.

On to `C[C@@H](NC(=O)Nc1ccc(Cl)c(Cl)c1)c1ccccc1`, for which the Activity came out at 57%.

In the case of `CC(=O)c1ccccc1NC(=O)N[C@H](C)c1ccccc1`, the Activity stood at 46%.

Regarding `C[C@H](NC(=O)Nc1ccc(C(C)(C)C)cc1)c1ccccc1`, the Activity is 52%.

The test system of a further data set is Oryza sativa. Description: Effect on Oryza sativa (rice) assessed as growth rate at 1 uM relative to control. The note with it: in vivo. Type of data set: organism-based.
Turning to `C[C@@H](NC(=O)Nc1c(F)cccc1F)c1ccccc1`, the Activity was 100%.

As to `C[C@H](NC(=O)Nc1cc(Cl)cc(Cl)c1)c1ccccc1`, the Activity was 100%.

For `C[C@H](NC(=O)Nc1ccccc1F)c1ccccc1`, the Activity is listed as 92%.

As to `Cc1ccc(NC(=O)N[C@H](C)c2ccccc2)cc1`, the Activity is reported as 98%.

`CCc1cccc(CC)c1NC(=O)N[C@H](C)c1ccccc1`: the Activity was 101%.

As for `COc1cccc(NC(=O)N[C@H](C)c2ccccc2)c1`, the Activity is given as 92%.

For the compound `CCc1ccccc1NC(=O)N[C@@H](C)c1ccccc1`, the Activity is reported as 100%.

`C[C@@H](NC(=O)Nc1ccc(Cl)c(Cl)c1)c1ccccc1`: the Activity is recorded as 96%.

Consider `CC(=O)c1ccccc1NC(=O)N[C@H](C)c1ccccc1`, for which the Activity is listed as 95%.

As for `C[C@H](NC(=O)Nc1ccc(C(C)(C)C)cc1)c1ccccc1`, the Activity was found to be 88%.

The next data set has as its system Oryza sativa. Kind of data set: Effect on Oryza sativa (rice) assessed as growth rate at 0.1 uM relative to control. Type of data set: organism-based. The settings on record: in vivo.
Take `C[C@@H](NC(=O)Nc1c(F)cccc1F)c1ccccc1`: the Activity is 100%.

For `C[C@H](NC(=O)Nc1cc(Cl)cc(Cl)c1)c1ccccc1`, the Activity was determined as 99%.

As to `C[C@H](NC(=O)Nc1ccccc1F)c1ccccc1`, the Activity is on record as 98%.

As for `Cc1ccc(NC(=O)N[C@H](C)c2ccccc2)cc1`, the Activity turned out to be 100%.

Consider `CCc1cccc(CC)c1NC(=O)N[C@H](C)c1ccccc1`, for which the Activity came to 101%.

`COc1cccc(NC(=O)N[C@H](C)c2ccccc2)c1`: the Activity is recorded as 104%.

As for `CCc1ccccc1NC(=O)N[C@@H](C)c1ccccc1`, the Activity was found to be 100%.

Consider `C[C@@H](NC(=O)Nc1ccc(Cl)c(Cl)c1)c1ccccc1`, for which the Activity was 98%.

For `CC(=O)c1ccccc1NC(=O)N[C@H](C)c1ccccc1`, the Activity came to 96%.

Take `C[C@H](NC(=O)Nc1ccc(C(C)(C)C)cc1)c1ccccc1`: the Activity is 100%.

The test system of the next data set is Oryza sativa. Description: Relieving activity against bensulfuron-methyl induced injury to Oryza sativa (rice) assessed as growth rate at 10 uM (Rbv = 46 to 53%). Type of data set: functional.
Conditions: not given
Take `C[C@@H](NC(=O)Nc1c(F)cccc1F)c1ccccc1`: the Activity came out at 71%.

As for `C[C@H](NC(=O)Nc1cc(Cl)cc(Cl)c1)c1ccccc1`, the Activity is 88%.

As for `C[C@H](NC(=O)Nc1ccccc1F)c1ccccc1`, the Activity stood at 78%.

In the case of `Cc1ccc(NC(=O)N[C@H](C)c2ccccc2)cc1`, the Activity was 63%.

Regarding `CCc1cccc(CC)c1NC(=O)N[C@H](C)c1ccccc1`, the Activity is 77%.

In the case of `COc1cccc(NC(=O)N[C@H](C)c2ccccc2)c1`, the Activity stood at 73%.

With `CCc1ccccc1NC(=O)N[C@@H](C)c1ccccc1`, the Activity was 71%.

For the compound `C[C@@H](NC(=O)Nc1ccc(Cl)c(Cl)c1)c1ccccc1`, the Activity is given as 77%.

Regarding `CC(=O)c1ccccc1NC(=O)N[C@H](C)c1ccccc1`, the Activity worked out at 71%.

Take `C[C@H](NC(=O)Nc1ccc(C(C)(C)C)cc1)c1ccccc1`: the Activity was 68%.

For a further data set, the system named is Oryza sativa. Description: Safener indices, ratio of compound effect of Oryza sativa (rice) growth rate to relieving activity against bensulfuron-methyl induced injury to Oryza sativa growth rate at 1 uM.
Conditions: not given
For the compound `C[C@@H](NC(=O)Nc1c(F)cccc1F)c1ccccc1`, the Ratio was 8.

For the compound `C[C@H](NC(=O)Nc1cc(Cl)cc(Cl)c1)c1ccccc1`, the Ratio was found to be 59.

In the case of `C[C@H](NC(=O)Nc1ccccc1F)c1ccccc1`, the Ratio came to 65.

Turning to `Cc1ccc(NC(=O)N[C@H](C)c2ccccc2)cc1`, the Ratio was found to be 41.

In the case of `CCc1cccc(CC)c1NC(=O)N[C@H](C)c1ccccc1`, the Ratio is listed as 25.

Turning to `COc1cccc(NC(=O)N[C@H](C)c2ccccc2)c1`, the Ratio is 27.

Regarding `CCc1ccccc1NC(=O)N[C@@H](C)c1ccccc1`, the Ratio is 12.

With `C[C@@H](NC(=O)Nc1ccc(Cl)c(Cl)c1)c1ccccc1`, the Ratio is reported as 34.

Regarding `CC(=O)c1ccccc1NC(=O)N[C@H](C)c1ccccc1`, the Ratio was 10.

As to `C[C@H](NC(=O)Nc1ccc(C(C)(C)C)cc1)c1ccccc1`, the Ratio is recorded as 37.

Test system in a further data set: not listed separately
Kind of data set: Hydrophobicity, log K of the compound. Type of data set: physicochemical. The settings on record: octanol/water.
In the case of `C[C@@H](NC(=O)Nc1c(F)cccc1F)c1ccccc1`, the “log K” value is 0.238.

In the case of `C[C@H](NC(=O)Nc1cc(Cl)cc(Cl)c1)c1ccccc1`, the “log K” value is 0.703.

As to `C[C@H](NC(=O)Nc1ccccc1F)c1ccccc1`, the “log K” value stood at 0.367.

`Cc1ccc(NC(=O)N[C@H](C)c2ccccc2)cc1`: the “log K” value was 0.367.

For the compound `CCc1cccc(CC)c1NC(=O)N[C@H](C)c1ccccc1`, the “log K” value is reported as 0.523.

Turning to `COc1cccc(NC(=O)N[C@H](C)c2ccccc2)c1`, the “log K” value was determined as 0.277.

On to `CCc1ccccc1NC(=O)N[C@@H](C)c1ccccc1`, for which the “log K” value is 0.422.

`C[C@@H](NC(=O)Nc1ccc(Cl)c(Cl)c1)c1ccccc1`: the “log K” value was found to be 0.61.

Turning to `CC(=O)c1ccccc1NC(=O)N[C@H](C)c1ccccc1`, the “log K” value came out at 0.432.

As for `C[C@H](NC(=O)Nc1ccc(C(C)(C)C)cc1)c1ccccc1`, the “log K” value is 0.673.

The subject of the next data set is Oryza sativa. Description: Relieving activity against bensulfuron-methyl induced injury to Oryza sativa (rice) assessed as growth rate at 1 uM (Rbv = 46 to 53%). Type of data set: functional.
Conditions: not given
Consider `C[C@@H](NC(=O)Nc1c(F)cccc1F)c1ccccc1`, for which the Activity was found to be 54%.

As for `C[C@H](NC(=O)Nc1cc(Cl)cc(Cl)c1)c1ccccc1`, the Activity is on record as 80%.

As for `C[C@H](NC(=O)Nc1ccccc1F)c1ccccc1`, the Activity amounted to 81%.

With `Cc1ccc(NC(=O)N[C@H](C)c2ccccc2)cc1`, the Activity stood at 70%.

For the compound `CCc1cccc(CC)c1NC(=O)N[C@H](C)c1ccccc1`, the Activity came out at 63%.

On to `COc1cccc(NC(=O)N[C@H](C)c2ccccc2)c1`, for which the Activity was determined as 63%.

For `CCc1ccccc1NC(=O)N[C@@H](C)c1ccccc1`, the Activity is listed as 57%.

Regarding `C[C@@H](NC(=O)Nc1ccc(Cl)c(Cl)c1)c1ccccc1`, the Activity came to 66%.

Turning to `CC(=O)c1ccccc1NC(=O)N[C@H](C)c1ccccc1`, the Activity turned out to be 51%.

With `C[C@H](NC(=O)Nc1ccc(C(C)(C)C)cc1)c1ccccc1`, the Activity was found to be 65%.
